Reference: US20040213755A1, “Compositions and methods for reducing odor” (priority 2000, published 2004)

Experiments:
[1] = GC headspace analysis of odor emitting compound; conditions: 500 μL of 0.1% solution in water; % of control; 0% = complete removal
Protocol: (§1) The first odor reducing composition of the invention was 89% L-aspartic acid, 1% ZnO, and 10% Smellrite® zeolite (Invention #1). The second odor reducing composition of the invention was 88% L-aspartic acid, 2% ZnO, and 10% Smellrite® zeolite (Invention #2). The odor emitting compounds were tested neat, and triethylamine (0.1%), dimethylsulfide (0.1%), and isovaleric acid (0.82%) were also tested as solutions in water.
(§2) In the tests using the water solutions of the odor emitting compounds, 500 μL of the solutions were used for all samples.
(§3) Samples were prepared using 20 mL serum bottles with septum caps, and gas tight syringes were used to sample the headspace in the serum bottles. The sample was weighed into the serum bottle, the odor emitting compounds were added, and the sample bottles capped. The sample and the odor emitting compound in the serum bottle was mixed in each case. The serum bottle was then allowed to stand for 30 minutes and a 100 μL sample was taken from headspace of the serum bottle using a gas tight syringe and then injected into a gas chromatograph (GC) for analysis.
(§4) The GC analysis was performed using a H—P 5890-11 GC with a FID detector and a Split/Splitless injector, and a H—P 3396 integrator. The column used was a capillary H—P Ultra-2 (50 m×0.32 mm×0.52 μm). The GC conditions used were: injector temperature=300° C., detector temperature=330° C., oven temperature program=70° C. initial hold for 4 min., raise temperature 7° C./min. to 235° C., hold at 235° C. for 4 min. with total run length of 31.6 min. The split was turned off at injection and turned on after 30 seconds.
(§5) Complete removal of odor is represented as 0% and the control is 100%.

[2] = GC headspace analysis of odor emitting compound; conditions: 500 μL of 0.82% solution in water; % of control; 0% = complete removal
Protocol: as §1, §2, §3, §4, §5

[3] = GC headspace analysis of odor emitting compound; conditions: 500 μL of 0.1% solution in water; % of control; 0% = complete removal; remark: listed apart in the source
Protocol: as §1, §2, §3, §4, §5

| Compound | % Odor, Triethylamine (0.1% in water) [1] [%] | % Odor, Isovaleric acid (0.82% in water) [2] [%] | % Odor, Dimethylsulfide (0.1% in water) [3] [%] |
| --- | --- | --- | --- |
| O=C([O-])O.[Na+] [Baking soda, sodium bicarbonate] | 19. | 8.7 | 93.6 |
| N[C@@H](CC(=O)O)C(=O)O [L-aspartic acid] | 0 | 13.9 | 82.2 |
| [O]=[Zn] [Zinc oxide, zinc oxide] | 79.3 | 0 | 96.4 |
